{"source": "patent US20210230203A1", "about": "“Amphiphilic Kanamycin Compositions and Methods” (priority 2020, published 2021)", "key": {"[1]": {"tested_on": "S. aureus (ATCC 33591) MRSA", "assay_type": "cell-based"}, "Candida guillermondii": {"tested_on": "Candida guillermondii", "test": "MIC against yeast, CLSI M27 & M38 (Table 2)", "conditions": "24-72 hours"}, "Saksenaea sp.": {"tested_on": "Saksenaea sp.", "test": "MIC against filamentous and dimorphic fungi, CLSI M27 & M38 (Table 3)", "assay_type": "cell-based, Saksenaea species", "conditions": "24-72 hours"}, "P. variotil": {"tested_on": "P. variotil", "test": "MIC against various species, CLSI M27 & M38 (Table 4)", "assay_type": "cell-based, Paecilomyces variotii", "conditions": "P. variotil QC, RPMI 0.165M MOPS, 24-72 hours"}, "[2]": {"tested_on": "Cryptococcus neoformans H99", "test": "MIC against fungal strains (Table 1)", "assay_type": "cell-based", "conditions": "Cryptococcus neoformans H99"}, "Apaphysomyces": {"tested_on": "Apaphysomyces", "test": "MIC against various species, CLSI M27 & M38 (Table 4)", "assay_type": "cell-based, Apophysomyces", "conditions": "24-72 hours"}, "Scedosporium": {"tested_on": "Scedosporium", "test": "MIC against various species, CLSI M27 & M38 (Table 4)", "conditions": "24-72 hours"}, "Rhodotorula pilimanae": {"tested_on": "Rhodotorula pilimanae", "test": "MIC against fungal strains (Table 1)", "assay_type": "cell-based"}, "Candida parapsilosis": {"tested_on": "Candida parapsilosis", "test": "MIC against yeast, CLSI M27 & M38 (Table 2)", "conditions": "Table 2, RPMI 0.165M MOPS, 24-72 hours"}, "Coccidioldes sp.": {"tested_on": "Coccidioldes sp.", "test": "microbe, parasite or virus in culture", "assay_type": "cell-based, Coccidioides species", "conditions": "Table 3, RPMI 0.165M MOPS, 24-72 hours"}, "[3]": {"conditions": "Candida guillermondii CGUI1, RPMI 0.165M MOPS"}, "[4]": {"conditions": "Candida guillermondii CGUI2, RPMI 0.165M MOPS"}, "[5]": {"conditions": "Candida guillermondii CGUI3, RPMI 0.165M MOPS"}, "[6]": {"conditions": "Saksenaea sp. SK1, RPMI 0.165M MOPS"}, "[7]": {"conditions": "Saksenaea sp. SK2, RPMI 0.165M MOPS"}, "[8]": {"conditions": "Saksenaea sp. SK3, RPMI 0.165M MOPS"}, "[9]": {"conditions": "Apaphysomyces APO1, RPMI 0.165M MOPS"}, "[10]": {"conditions": "Apaphysomyces APO2, RPMI 0.165M MOPS"}, "[11]": {"conditions": "Apaphysomyces APO3, RPMI 0.165M MOPS"}, "[12]": {"conditions": "Scedosporium SA1, RPMI 0.165M MOPS"}, "[13]": {"conditions": "Scedosporium SB1, RPMI 0.165M MOPS"}}}
{"compound": "CCCCCCCCCCCCCCCC(=O)NC[C@H]1O[C@H](O[C@H]2[C@H](O)[C@@H](O[C@H]3O[C@H](CO)[C@@H](O)[C@H](N)[C@H]3O)[C@H](N)C[C@@H]2N)[C@H](O)[C@@H](O)[C@@H]1O", "note": "[KI06]", "values": [{"measurement": "Minimum inhibitory concentration", "setting": "[1]", "value": 16, "unit": "µg/mL"}, {"measurement": "Minimum inhibitory concentration 50%", "setting": "Candida guillermondii; [3]", "value": 4, "unit": "µg/mL"}, {"measurement": "Minimum inhibitory concentration 100%", "setting": "Candida guillermondii; [3]", "value": 8, "unit": "µg/mL"}, {"measurement": "Minimum inhibitory concentration 50%", "setting": "Candida guillermondii; [4]", "value": 4, "unit": "µg/mL"}, {"measurement": "Minimum inhibitory concentration 100%", "setting": "Candida guillermondii; [4]", "value": 8, "unit": "µg/mL"}, {"measurement": "Minimum inhibitory concentration 50%", "setting": "Candida guillermondii; [5]", "value": 4, "unit": "µg/mL"}, {"measurement": "Minimum inhibitory concentration 100%", "setting": "Candida guillermondii; [5]", "value": 8, "unit": "µg/mL"}, {"measurement": "Minimum inhibitory concentration 50%", "setting": "Saksenaea sp.; [6]", "value": 1, "unit": "µg/mL"}, {"measurement": "Minimum inhibitory concentration 100%", "setting": "Saksenaea sp.; [6]", "value": 1, "unit": "µg/mL"}, {"measurement": "Minimum inhibitory concentration 50%", "setting": "Saksenaea sp.; [7]", "value": 1, "unit": "µg/mL"}, {"measurement": "Minimum inhibitory concentration 100%", "setting": "Saksenaea sp.; [7]", "value": 2, "unit": "µg/mL"}, {"measurement": "Minimum inhibitory concentration 50%", "setting": "Saksenaea sp.; [8]", "value": 1, "unit": "µg/mL"}, {"measurement": "Minimum inhibitory concentration 100%", "setting": "Saksenaea sp.; [8]", "value": 2, "unit": "µg/mL"}, {"measurement": "Minimum inhibitory concentration 50%", "setting": "P. variotil", "value": 8, "unit": "µg/mL"}, {"measurement": "Minimum inhibitory concentration 100%", "setting": "P. variotil", "value": 8, "unit": "µg/mL"}, {"measurement": "Minimum inhibitory concentration", "setting": "[2]", "value": 4, "unit": "µg/mL"}, {"measurement": "Minimum inhibitory concentration 50%", "setting": "Apaphysomyces; [9]", "value": 2, "unit": "µg/mL"}, {"measurement": "Minimum inhibitory concentration 100%", "setting": "Apaphysomyces; [9]", "value": 2, "unit": "µg/mL"}, {"measurement": "Minimum inhibitory concentration 50%", "setting": "Apaphysomyces; [10]", "value": 1, "unit": "µg/mL"}, {"measurement": "Minimum inhibitory concentration 100%", "setting": "Apaphysomyces; [10]", "value": 4, "unit": "µg/mL"}, {"measurement": "Minimum inhibitory concentration 50%", "setting": "Apaphysomyces; [11]", "value": 1, "unit": "µg/mL"}, {"measurement": "Minimum inhibitory concentration 100%", "setting": "Apaphysomyces; [11]", "value": 4, "unit": "µg/mL"}, {"measurement": "Minimum inhibitory concentration 50%", "setting": "Scedosporium; [12]", "value": 2, "unit": "µg/mL"}, {"measurement": "Minimum inhibitory concentration 100%", "setting": "Scedosporium; [12]", "value": 4, "unit": "µg/mL"}, {"measurement": "Minimum inhibitory concentration 50%", "setting": "Scedosporium; [13]", "value": 1, "unit": "µg/mL"}, {"measurement": "Minimum inhibitory concentration 100%", "setting": "Scedosporium; [13]", "value": 8, "unit": "µg/mL"}, {"measurement": "Minimum inhibitory concentration", "setting": "Rhodotorula pilimanae", "value": 4, "unit": "µg/mL"}, {"measurement": "Minimum inhibitory concentration 50%", "setting": "Candida parapsilosis; C. parapsilosis ATCC 22019", "value": 4, "unit": "µg/mL"}, {"measurement": "Minimum inhibitory concentration 100%", "setting": "Candida parapsilosis; C. parapsilosis ATCC 22019", "value": 8, "unit": "µg/mL"}, {"measurement": "Minimum inhibitory concentration 50%", "setting": "Candida parapsilosis; Candida parapsilosis CP1", "value": 4, "unit": "µg/mL"}, {"measurement": "Minimum inhibitory concentration 100%", "setting": "Candida parapsilosis; Candida parapsilosis CP1", "value": 8, "unit": "µg/mL"}, {"measurement": "Minimum inhibitory concentration 50%", "setting": "Candida parapsilosis; Candida parapsilosis CP2", "value": 4, "unit": "µg/mL"}, {"measurement": "Minimum inhibitory concentration 100%", "setting": "Candida parapsilosis; Candida parapsilosis CP2", "value": 8, "unit": "µg/mL"}, {"measurement": "Minimum inhibitory concentration 50%", "setting": "Candida parapsilosis; Candida parapsilosis CP3", "value": 8, "unit": "µg/mL"}, {"measurement": "Minimum inhibitory concentration 100%", "setting": "Candida parapsilosis; Candida parapsilosis CP3", "value": 16, "unit": "µg/mL"}, {"measurement": "Minimum inhibitory concentration 50%", "setting": "Coccidioldes sp.; Coccidioldes sp. Cocci1", "value": 4, "unit": "µg/mL"}, {"measurement": "Minimum inhibitory concentration 100%", "setting": "Coccidioldes sp.; Coccidioldes sp. Cocci1", "value": 8, "unit": "µg/mL"}, {"measurement": "Minimum inhibitory concentration 50%", "setting": "Coccidioldes sp.; Coccidioldes sp. Cocci2", "value": 4, "unit": "µg/mL"}, {"measurement": "Minimum inhibitory concentration 100%", "setting": "Coccidioldes sp.; Coccidioldes sp. Cocci2", "value": 8, "unit": "µg/mL"}, {"measurement": "Minimum inhibitory concentration 50%", "setting": "Coccidioldes sp.; Coccidioldes sp. DI17-143", "value": 4, "unit": "µg/mL"}, {"measurement": "Minimum inhibitory concentration 100%", "setting": "Coccidioldes sp.; Coccidioldes sp. DI17-143", "value": 8, "unit": "µg/mL"}]}
